Test system: primary mouse hepatocytes
Experiment: Gene expression (Affymetrix Mouse Genome 430 2.0) in primary mouse hepatocytes, true vs false GTX, 24 h and 48 h
Details: log2, corrected for vehicle control

Nc1ccc([N+](=O)[O-])cc1N [4-NP, 4-Nitro-o-phenylenediamine]
Gene expression data AF000969 (Cadps2) (24 h average): −0.6839
Gene expression data AF022072 (Grb10) (24 h average): 0.8486
Gene expression data AF065917 (Lif) (24 h average): −0.4573
Gene expression data AF204959 (Cyp3a25 /// LOC622249) (24 h average): −2.025
Gene expression data AF297615 (Ggta1) (24 h average): −0.2797
Gene expression data AI594683 (Dmn) (24 h average): −0.3517
Gene expression data AI596632 (Ptprg /// LOC632664) (24 h average): −0.4962
Gene expression data AI987929 (Ndrg1) (24 h average): 2.65
Gene expression data AK004419 (Fbxl17) (24 h average): −0.0775
Gene expression data AK005731 (1700007K13Rik) (24 h average): −0.5111
Gene expression data AK007766 (1810044A24Rik) (24 h average): −0.1697
Gene expression data AK007854 (1810053B23Rik) (24 h average): −1.736
Gene expression data AK009736 (Gpr137b /// LOC664862 /// LOC673335) (24 h average): 1.582
Gene expression data AK010447 (Smyd3) (24 h average): 0.4967
Gene expression data AK014608 (4632434l11Rik) (24 h average): 0.2958
Gene expression data AK019979 (2610528E23Rik) (24 h average): 0.9384
Gene expression data AV095209 (Mthfd1l) (24 h average): 0.9072
Gene expression data AV141095 (1110033M05Rik) (24 h average): 0.1789
Gene expression data AV173571 (1700106N22Rik) (24 h average): −0.003133
Gene expression data AV219418 (Ldhb) (24 h average): −1.032
Gene expression data AV223474 (Zdhhc14) (24 h average): −0.08437
Gene expression data AV298304 (Homez) (24 h average): −0.5839
Gene expression data AV327248 (Zfp365 /// LOC674611) (24 h average): −0.08917
Gene expression data AV377066 (9130221J18Rik) (24 h average): −1.695
Gene expression data AW240761 (Tbc1d5) (24 h average): 0.02697
Gene expression data AW543460 (Pard3) (24 h average): 0.9127
Gene expression data AW543723 (24 h average): 0.6706
Gene expression data AW986246 (Maoa) (24 h average): 1.7055
Gene expression data BB027848 (4732466D17Rik) (24 h average): −1.7858
Gene expression data BB043558 (9230114K14Rik) (24 h average): −0.4159
Gene expression data BB275142 (AW456874) (24 h average): −0.4184
Gene expression data BB308836 (Ppm1l) (24 h average): 0.03763
Gene expression data BB318221 (Zdhhc14) (24 h average): 0.0942
Gene expression data BB463610 (4632434l11Rik) (24 h average): 0.2106
Gene expression data BB526605 (Mipol1) (24 h average): 1.641
Gene expression data BB770528 (Rai2) (24 h average): −1.122
Gene expression data BB821363 (Scfd2) (24 h average): −0.219
Gene expression data BC004827 (Psat1) (24 h average): 0.5395
Gene expression data BC008626 (Icam1) (24 h average): −2.248
Gene expression data BC010462 (BC010462) (24 h average): −0.8654
Gene expression data BC012247 (Dcxr) (24 h average): −1.5
Gene expression data BC012260 (Psmf1) (24 h average): 0.1189
Gene expression data BC015270 (Hist2h3c2) (24 h average): −0.7846
Gene expression data BC016073 (Cdkal1) (24 h average): 0.3627
Gene expression data BC016265 (Ube2e2) (24 h average): 0.03433
Gene expression data BC019882 (Acaa1b) (24 h average): −1.259
Gene expression data BC025501 (Aaas) (24 h average): −0.2167
Gene expression data BC025837 (Sbk1) (24 h average): −0.8181
Gene expression data BC025915 (Cova1) (24 h average): 0.3343
Gene expression data BC026422 (Tgm1) (24 h average): −0.8176
Gene expression data BF719766 (Thyn1) (24 h average): −0.2859
Gene expression data BG065754 (Ccng1) (24 h average): −0.2503
Gene expression data BG066903 (Kif16b) (24 h average): 1.005
Gene expression data BG069873 (Gnb1l) (24 h average): −0.1326
Gene expression data BG070887 (Gtdc1) (24 h average): 0.3432
Gene expression data BG076151 (Ppm1d) (24 h average): −0.2933
Gene expression data BG261907 (Large) (24 h average): 0.3643
Gene expression data BI651416 (Cdc42bpg) (24 h average): −0.0339
Gene expression data BI660702 (Ell3) (24 h average): −0.609
Gene expression data BM198879 (Ercc5) (24 h average): −0.3288
Gene expression data BM230508 (A030007D23Rik) (24 h average): −0.6065
Gene expression data NM_007987 (Fas) (24 h average): −1.231
Gene expression data NM_008522 (Ltf) (24 h average): −0.3018
Gene expression data NM_008576 (Abcc1) (24 h average): 1.696
Gene expression data NM_011176 (St14) (24 h average): −0.5717
Gene expression data NM_011316 (Saa4) (24 h average): −0.5909
Gene expression data NM_012006 (Acot1) (24 h average): −1.4501
Gene expression data NM_013866 (Zfp385) (24 h average): −0.2808
Gene expression data NM_018770 (Igsf4a) (24 h average): 0.3868
Gene expression data NM_021451 (Pmaip1) (24 h average): −1.505
Gene expression data NM_025770 (Atg10) (24 h average): 1.051
Gene expression data NM_028803 (Gbe1) (24 h average): 0.3633
Gene expression data NM_030697 (Ankrd47) (24 h average): 0.1816
Gene expression data NM_053168 (Trim11) (24 h average): −0.1598
Gene expression data NM_134188 (Acot2) (24 h average): −0.7637
Gene expression data Y15910 (Diap2) (24 h average): −0.5398
Gene expression AA561726 average (48 h): −0.08
Gene expression AF000969 average (48 h): −0.8202
Gene expression AF022072 average (48 h): 0.6062
Gene expression AF033112 average (48 h): 0.152
Gene expression AF055573 average (48 h): −0.1973
Gene expression AF069954 average (48 h): −0.4429
Gene expression AF297615 average (48 h): −1.352
Gene expression AF335325 average (48 h): 0.5071
Gene expression AI594683 average (48 h): −0.4763
Gene expression AI747296 average (48 h): −0.3288
Gene expression AK005731 average (48 h): −0.9581
Gene expression AK007854 average (48 h): −0.1411
Gene expression AK010447 average (48 h): 0.5956
Gene expression AK010738 average (48 h): −0.1569
Gene expression AK014608 average (48 h): −0.3072
Gene expression AK017734 average (48 h): −1.2326
Gene expression AK018383 average (48 h): −0.5006
Gene expression AK019979 average (48 h): 0.04087
Gene expression AV095209 average (48 h): 0.6413
Gene expression AV141095 average (48 h): −0.1051
Gene expression AV173869 average (48 h): 0.1411
Gene expression AV216768 average (48 h): −0.004067
Gene expression AV219418 average (48 h): 0.6295
Gene expression AV221299 average (48 h): 0.7477
Gene expression AV246296 average (48 h): −1.046
Gene expression AV251625 average (48 h): −0.1615
Gene expression AV254764 average (48 h): −0.4499
Gene expression AV327248 average (48 h): −0.01493
Gene expression BB009155 average (48 h): −0.6079
Gene expression BB027848 average (48 h): −1.954
Gene expression BB043558 average (48 h): −0.2736
Gene expression BB046347 average (48 h): −0.8045
Gene expression BB140436 average (48 h): 2.071
Gene expression BB204486 average (48 h): −0.0837
Gene expression BB223872 average (48 h): −0.6536
Gene expression BB246912 average (48 h): 0.3026
Gene expression BB275142 average (48 h): −0.1963
Gene expression BB458460 average (48 h): 0.1645
Gene expression BB463610 average (48 h): 0.03727
Gene expression BB730977 average (48 h): 0.992
Gene expression BB743970 average (48 h): −0.1636
Gene expression BB770528 average (48 h): −0.9985
Gene expression BB781615 average (48 h): −0.7501
Gene expression BC003284 average (48 h): −0.5876
Gene expression BC004827 average (48 h): −0.2247
Gene expression BC005552 average (48 h): 0.4521
Gene expression BC006713 average (48 h): −0.7469
Gene expression BC010318 average (48 h): 0.1861
Gene expression BC012247 average (48 h): −0.6355
Gene expression BC012955 average (48 h): 0.1051
Gene expression BC013893 average (48 h): −1.496
Gene expression BC017615 average (48 h): −1.535
Gene expression BC019379 average (48 h): −0.5665
Gene expression BC019882 average (48 h): −2.4942
Gene expression BC021352 average (48 h): −1.28
Gene expression BC022148 average (48 h): −1.1322
Gene expression BC025169 average (48 h): 0.3712
Gene expression BC026131 average (48 h): 0.2124
Gene expression BC027026 average (48 h): 0.05273
Gene expression BC027121 average (48 h): −0.2406
Gene expression BC027185 average (48 h): −1.382
Gene expression BE956581 average (48 h): 0.0346
Gene expression BF719766 average (48 h): −0.5024
Gene expression BG065754 average (48 h): −0.3381
Gene expression BG066491 average (48 h): −0.8219
Gene expression BG076151 average (48 h): −0.6573
Gene expression BG076333 average (48 h): 0.8731
Gene expression BG797099 average (48 h): −0.06697
Gene expression BG967046 average (48 h): −0.6324
Gene expression BI651416 average (48 h): −0.02873
Gene expression BI966443 average (48 h): 0.2259
Gene expression BM198879 average (48 h): −0.4213
Gene expression BM200015 average (48 h): −0.4429
Gene expression BM230508 average (48 h): −0.9731
Gene expression BM936480 average (48 h): −0.412
Gene expression BQ174991 average (48 h): 0.4017
Gene expression L21027 average (48 h): −0.03073
Gene expression NM_007556 average (48 h): 0.4274
Gene expression NM_007980 average (48 h): −1.581
Gene expression NM_007987 average (48 h): −0.8469
Gene expression NM_008522 average (48 h): −0.2393
Gene expression NM_008935 average (48 h): −1.002
Gene expression NM_009897 average (48 h): −0.01903
Gene expression NM_011075 average (48 h): −1.008
Gene expression NM_011176 average (48 h): −1.635
Gene expression NM_011316 average (48 h): −0.9295
Gene expression NM_012006 average (48 h): −0.006733
Gene expression NM_013642 average (48 h): 1.007
Gene expression NM_013738 average (48 h): −1.171
Gene expression NM_013929 average (48 h): 0.1753
Gene expression NM_018881 average (48 h): −0.2965
Gene expression NM_019738 average (48 h): −1.132
Gene expression NM_030697 average (48 h): −0.3339
Gene expression NM_053122 average (48 h): −0.09647
Gene expression NM_134147 average (48 h): 0.01433
Gene expression NM_134188 average (48 h): −0.4402
Gene expression X62701 average (48 h): 0.7376

— patent US20120122727A1, “IN VITRO METHOD FOR PREDICTING WHETHER A COMPOUND IS GENOTOXIC IN VIVO” (priority 2009, published 2012)
